Reference: ChEMBL document CHEMBL1201862, “PubChem BioAssay data set” (2004)
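48-hour exposure; five concentrations; linearly interpolated endpoints. Here, GI50 denotes the concentration required for 50% inhibition of growth.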 The source made the active and inactive calls. Cut-off read from the data, not from the text of the source: active = GI50 up to about 1.1 µM and inactive = higher.

Legend:
Test in all cases: NCI tumour cell line growth inhibition, 48 h
[1] = test system: T47D
[2] = test system: BT-549
[3] = test system: M19-MEL
[4] = test system: DMS-114
[5] = test system: HOP-18
[6] = test system: KM-20L2
[7] = test system: SNB-78

Compound	GI50 [1]	GI50 [2]	other results
COc1ccc(C2C=C(c3ccccc3)Nc3nnnn32)cc1 (stereo not drawn)	19 µM (inactive)		
CC(=O)Nc1ccc(S(=O)(=O)N=S(C)C)cc1	> 100 µM (inactive)	> 100 µM (inactive)	
O=C(O)C(Cc1cccs1)C(=O)O	> 100 µM (inactive)	> 100 µM (inactive)	
Cn1ncc2c(Nc3cccc(Cl)c3)nc(Nc3cccc(Cl)c3)nc21	10.2 µM (inactive)	21.8 µM (inactive)	
ON(CCc1ccccn1)Cc1ccccc1	> 100 µM (inactive)	> 100 µM (inactive)	
O=C(O)c1cccc(C(=O)O)c1[S+]([O-])Cc1ccccc1 (stereo not drawn)	> 100 µM (inactive)	> 100 µM (inactive)	
O=C1NC(=S)N/C1=C\c1cccs1	73.1 µM (inactive)	> 100 µM (inactive)	
O=P(c1ccccc1)(c1ccccc1)C(NCc1ccccc1)c1ccc(F)cc1 (stereo not drawn)	26.5 µM (inactive)		
COC(=O)/C=C1/OC(c2ccccc2)=CC1=O	20.9 µM (inactive)	17.7 µM (inactive)	
CCC1(O)CN(CCOC)[C@H]2C[C@@H]1C(=O)c1[nH]c3ccccc3c12 (stereo partly drawn)		> 100 µM (inactive)	
CCC1(CC)C(=O)N(C(=O)c2ccc(Cl)cc2)N(C(=O)c2ccccc2Cl)C1=O	62.7 µM (inactive)	67.9 µM (inactive)	
O=C(O[C@H](/C=C/c1ccccc1)P1(=O)N(Cc2ccccc2)[C@H]2CCCC[C@@H]2N1Cc1ccccc1)c1ccccc1	0.877 µM (active)	5.56 µM (inactive)	
C1CSCCSCCCSCCSCCCSCCSCCCSCCSC1	57 µM (inactive)	> 100 µM (inactive)	
Oc1nc(CC(O)c2ccc(Cl)c(Cl)c2)cc(-c2ccccc2)n1 (stereo not drawn)			GI50 [3]: 44.3 µM (inactive); GI50 [4]: 38.9 µM (inactive); GI50 [5]: > 100 µM (inactive); GI50 [6]: 60 µM (inactive)
COc1ccc(CNc2nc3cc(C(F)(F)F)ccc3nc2C(=O)O)cc1	25.7 µM (inactive)	23.3 µM (inactive)	
CC(ON1[C@](C)(c2ccccc2)CC[C@@]1(C)c1ccccc1)c1ccccc1 (stereo partly drawn)	24.1 µM (inactive)	13.4 µM (inactive)	
CC(=O)C1(/N=N/c2ccc(S(N)(=O)=O)cc2)CCOC1=O (stereo not drawn)	> 100 µM (inactive)	> 100 µM (inactive)	
Cc1cccc(NC(=O)C(=O)C2C(=O)NC(=O)NC2=O)c1C			GI50 [7]: > 100 µM (inactive); GI50 [3]: > 100 µM (inactive); GI50 [4]: > 100 µM (inactive); GI50 [5]: > 100 µM (inactive); GI50 [6]: > 100 µM (inactive)
Cc1ccc(N2CN3OC(=O)N(c4ccccc4)[C@@]3(c3ccccc3)C2)cc1	14.2 µM (inactive)	50.4 µM (inactive)	
COc1ccc(NC(=O)C(C#N)=C(SC)SC)cc1	> 100 µM (inactive)	> 100 µM (inactive)	
CC1=C(C(=O)NC2CCCCC2)CC(C(=O)NC2CCCCC2)=C(C)N1	58.6 µM (inactive)	> 100 µM (inactive)	
COC1/C=C(C)/C=C/C(C)/C=C/C(=O)OC(/C(C)=C/C=C(\C)CNC(=O)[C@H](CO)NC=O)C(C)/C=C/C=C/C(OC)CC/C=C(C)/C=C/C1 (stereo partly drawn)	0.0525 µM (active)	0.0581 µM (active)	
O=C(CCCl)NN=C1NCCCN1	> 100 µM (inactive)	> 100 µM (inactive)	
O=C(c1ccccc1)c1c(-c2ccccc2)[nH]n(-c2ccc([N+](=O)[O-])cc2)c(=O)c1=O	81.8 µM (inactive)	27.6 µM (inactive)	
Oc1ccc2ccccc2c1OCc1nnc(CCCCCCCCc2nnc(COc3c(O)ccc4ccccc34)o2)o1		> 100 µM (inactive)	
N#CC(C#N)=C1C(C#N)=C(N)NC12OCCO2	> 100 µM (inactive)	> 100 µM (inactive)	
